Reference: US7414064B2, “4-(3,3-dihalo-allyloxy) phenoxy alkyl derivatives” (Syngenta Crop Protection, Inc., priority 2002, dated 2008)

system: Heliothis virescens; experiment: Action against Heliothis virescens caterpillars (sprayed soybean plants); assay type: in vivo; settings: 144 h, 400 ppm spray mixture, caterpillars in the first stage, evaluation 6 days later, read-out: percentage reduction in population and percentage reduction in feeding damage (% activity)
Description: Young soybean plants are sprayed with an aqueous emulsion spray mixture comprising 400 ppm of test compound. After the spray-coating has dried, the soybean plants are populated with 10 caterpillars of Heliothis virescens in the first stage and placed in a plastics container. Evaluation is made 6 days later. The percentage reduction in population and the percentage reduction in feeding damage (% activity) are determined by comparing the number of dead caterpillars and the feeding damage on the treated plants with that on the untreated plants.

Row | Structure (SMILES) | inhibition at 400 ppm [%]
1 | COC(=O)Nc1ccc(OCCCOc2c(Cl)cc(OCC=C(Cl)Cl)cc2Cl)cc1 [Compound 1.3] | > 80
2 | CCOC(=O)Nc1ccc(OCCCOc2c(Cl)cc(OCC=C(Cl)Cl)cc2Cl)cc1 [Compound 1.4] | > 80
3 | CC(C)(C)OC(=O)Nc1ccc(OCCCOc2c(Cl)cc(OCC=C(Cl)Cl)cc2Cl)cc1 [Compound 1.6, (4-{3-[2,6-Dichloro-4-(3,3-dichloroallyloxy)-phenoxy]-propoxy}-phenyl)-carbamic acid tert-butyl ester] | > 80
4 | C#CCOC(=O)Nc1ccc(OCCCOc2c(Cl)cc(OCC=C(Cl)Cl)cc2Cl)cc1 [Compound 1.10] | > 80

system: not given; experiment: not given; settings: not given

Row | Structure (SMILES) | melting point [°C]
5 | O=C(Nc1ccc(OCCCOc2c(Cl)cc(OCC=C(Cl)Cl)cc2Cl)cc1)c1ccccc1Cl [Compound 1.19] | 107 to 111
6 | O=C(Nc1ccc(OCCCOc2c(Cl)cc(OCC=C(Cl)Cl)cc2Cl)cc1)c1ccccc1C(F)(F)F [Compound 1.24] | 118 to 121
7 | O=C(Nc1ccc(OCCCOc2c(Cl)cc(OCC=C(Cl)Cl)cc2Cl)cc1)c1ccco1 [Compound 1.25] | 108 to 113
8 | O=C(Nc1ccc(OCCCOc2c(Cl)cc(OCC=C(Cl)Cl)cc2Cl)cc1)c1cccs1 [Compound 1.26] | 83 to 90

The next lines start with the values.

Row | melting point [°C] | Structure (SMILES)
9 | 89 to 92 | Cc1ccccc1C(=O)Nc1ccc(OCCCOc2c(Cl)cc(OCC=C(Cl)Cl)cc2Cl)cc1 [Compound 1.20]
10 | 112 to 114 | O=C(Nc1ccc(OCCCOc2c(Cl)cc(OCC=C(Cl)Cl)cc2Cl)cc1)c1ccccc1Br [Compound 1.21]
11 | 95 to 97 | O=C(Nc1ccc(OCCCOc2c(Cl)cc(OCC=C(Cl)Cl)cc2Cl)cc1)c1c(F)cccc1F [Compound 1.22]
12 | 89 to 91 | O=C(Nc1ccc(OCCCOc2c(Cl)cc(OCC=C(Cl)Cl)cc2Cl)cc1)c1ccc(F)cc1F [Compound 1.23]
